# Assay results reported in US20230250096A1, “SUBSTITUTED PHENYL-1H-PYRROLO[2,3-c] PYRIDINE DERIVATIVES” (Janssen Pharmaceutica NV, priority 2021, published 2023).
# pIC50: −log10 of the molar value. Like-named read-outs stand apart in the source and are kept apart here.
# What was measured:
# [1] = molecular target: T1, menin/MLL (terbium chelate-labeled menin, FITC-MBM1 peptide) (Homo sapiens, UniProt O00255, T541A); assay: Menin/MLL homogenous time-resolved fluorescence (HTRF) assay; assay type: binding; details: 30 min incubation
# T1 construct: Menin (a.a 1-610-6xhis tag, 2.3 mg/mL in 20 mM Hepes)
# T1 sequence (O00255 with tags, fused parts or gaps T541A): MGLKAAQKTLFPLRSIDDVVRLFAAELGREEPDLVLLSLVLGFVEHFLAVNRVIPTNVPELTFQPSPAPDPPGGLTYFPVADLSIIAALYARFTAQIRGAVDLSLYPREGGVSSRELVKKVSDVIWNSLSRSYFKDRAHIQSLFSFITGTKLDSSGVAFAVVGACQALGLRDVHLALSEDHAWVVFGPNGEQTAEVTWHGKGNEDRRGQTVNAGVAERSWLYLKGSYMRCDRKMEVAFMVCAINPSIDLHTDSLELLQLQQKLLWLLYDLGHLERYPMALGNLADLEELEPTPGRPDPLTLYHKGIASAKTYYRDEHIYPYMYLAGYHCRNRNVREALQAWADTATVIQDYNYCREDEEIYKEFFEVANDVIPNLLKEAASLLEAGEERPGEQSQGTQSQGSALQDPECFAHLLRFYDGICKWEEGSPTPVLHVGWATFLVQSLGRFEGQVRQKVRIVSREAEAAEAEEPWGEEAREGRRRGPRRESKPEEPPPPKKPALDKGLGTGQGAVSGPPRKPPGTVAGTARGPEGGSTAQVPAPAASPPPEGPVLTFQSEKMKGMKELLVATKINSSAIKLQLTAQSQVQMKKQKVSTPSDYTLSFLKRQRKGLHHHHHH
# Summary of the method: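 Terbium-labeled menin (a.a. 1-610, His-tagged; […]) pre-incubated 30 min with compound, then 75 nM FITC-MBM1 peptide added for 15 min at ambient temperature in Tris pH 7.5 buffer, 0.5% DMSO. HTRF 520/490 nm ratio read; IC50 from 11-point four-fold titrations, typically from 10 μM.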
# MOLM14 cells = assay: Proliferation assay (spheroid confluence, 8 days), MOLM14; assay type: cell-based, human; details: read-out: spheroid assay_MOLM14 IC50
# Method: (§1) The anti-proliferative effect of menin/MLL protein/protein interaction inhibitor test compounds was assessed in human leukemia cell lines. The cell line MOLM14 harbors a MLL translocation and expresses the MLL fusion protein MLL-AF9, respectively, as well as the wildtype protein from the second allele. OCI-AML3 cells that carry the NPM1c gene mutation were also tested. […] KO-52 was used as a control cell line containing two MLL (KMT2A) wildtype alleles in order to exclude compounds that display general cytotoxic effects.
# (§2) MOLM14 cells were cultured in RPMI-1640 (Sigma Aldrich) supplemented with 10% heat-inactivated fetal bovine serum (HyClone), 2 mM L-glutamine (Sigma Aldrich) and 50 μg/ml gentamycin (Gibco). KO-52 and OCI-AML3 cell lines were propagated in alpha-MEM (Sigma Aldrich) supplemented with 20% heat-inactivated fetal bovine serum (HyClone), 2 mM L-glutamine (Sigma Aldrich) and 50 μg/ml gentamycin (Gibco).
# (§3) In order to assess the anti-proliferative effects, 200 MOLM14 cells, 200 OCI-AML3 cells or 300 KO-52 cells were seeded in 200 μl media per well in 96-well round bottom, ultra-low attachment plates (Costar, catalogue number 7007). Cell seeding numbers were chosen based on growth curves to ensure linear growth throughout the experiment. Test compounds were added at different concentrations and the DMSO content was normalized to 0.3%. Cells were incubated for 8 days at 37° C. and 5% CO2. Spheroid like growth was measured in real-time by live-cell imaging (IncuCyteZOOM, Essenbio, 4×objective) acquiring images at day 8. Confluence (%) as a measure of spheroid size was determined using an integrated analysis tool.
# (§4) In order to determine the effect of the test compounds over time, the confluence in each well as a measure of spheroid size, was calculated. Confluence of the highest dose of a reference compound was used as baseline for the LC (Low control) and the confluence of DMSO treated cells was used as 0% cytotoxicity (High Control, HC).
# (§5) Absolute IC50 values were calculated as percent change in confluence as follows:
# (§6) LC=Low Control: cells treated with e.g. 1 μM of the cytotoxic agent staurosporin, or e.g. cells treated with a high concentration of an alternative reference compound
# (§7) HC=High Control: Mean confluence (%) (DMSO treated cells)
# (§8) % Effect=100−(100*(Sample−LC)/(HC−LC))
# (§9) GraphPad Prism (version 7.00) was used to calculate the IC50. Dose-response equation was used for the plot of % Effect vs Log10 compound concentration with a variable slope and fixing the maximum to 100% and the minimum to 0%.
# KO-52 cells = assay: Proliferation assay (spheroid confluence, 8 days), KO-52 control cell line; assay type: cell-based, human; details: Homo sapiens, read-out: spheroid assay_KO-52 IC50
# Method: as §1, §2, §3, §4, §5, §6, §7, §8, §9
# MEIS1 mRNA expression = MEIS1 mRNA expression assay (Quantigene Singleplex) in MOLM14 cells; assay type: cell-based, human; details: 48 hours incubation
# Summary of the method: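 MOLM14 cells, 3,750/well, exposed to increasing compound concentrations for 48 h. MEIS1 mRNA measured by QuantiGene Singleplex branched-DNA hybridization (lysis 45 min, hybridization 18–22 h, both 55 °C), normalized to RPL28. IC50 fitted to background-corrected fold change versus DMSO.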
# OCI-AML3 cells = assay: Proliferation assay (spheroid confluence, 8 days), OCI-AML3; assay type: cell-based, human; details: OCI-AML3; read-out: spheroid assay_OCI-AML3 IC50
# Method: as §1, §2, §3, §4, §5, §6, §7, §8, §9
SMILES,pIC50 [1],"pIC50 (MOLM14 cells; Homo sapiens, MOLM-14, MOLM14)",pIC50 (KO-52 cells),"pIC50 (MEIS1 mRNA expression; Homo sapiens, MOLM-14, 48 h)",pIC50 (OCI-AML3 cells),pIC50 (MEIS1 mRNA expression),pIC50 (MOLM14 cells; MOLM14)
CCN(C(=O)c1cc(F)ccc1-n1cc(CC2CN(C(C(C)C)[C@H]3C[C@H](N4C[C@H]5CN(C(C)=O)C[C@@H]5C4)C3)C2)c2c(C)cncc21)C(C)C (mixture of isomers) [Compound 38b],10.89,8.70,5.92,,,,
Cc1cncc2c1c(CC1CN(CC3CCOCC3)C1)cn2-c1ccc(F)cc1S(=N)(=O)C(C)C (stereo not drawn) [Compound 80],9.94,7.00,5.14,,,,
CCN(C(=O)c1cc(F)ccc1-n1cc(CC2CN(C(C(C)C)[C@H]3C[C@@H](N4CCN(C(C)=O)CC4)C3)C2)c2c(C)cncc21)C(C)C (stereo partly drawn) [Compound 35a],10.23,,5.82,7.68,,,
Cc1cncc2c1c(C[C@@H]1CCN(CC3CCC(=O)N(C)CC3)C1)cn2-c1ccc(F)cc1C(=O)N(C)C(C)C (stereo partly drawn) [Compound 184],10.22,7.59,5.13,,,,
"Cc1cncc2c1c(C[C@@H]1CCN(CC3CCNC(=O)CC3)C1)cn2-c1ccc(F)cc1C(=O)N1CCC[C@H]1C (single isomer, unassigned) [Compound 353b]",9.62,,,,6.63,6.86,
CNC(=O)[C@H]1CC[C@H](CN2CC(C)(Cc3cn(-c4ccc(F)cc4C(=O)N(C)C(C)C)c4cncc(C)c34)C2)CC1 [Compound 140],~9.77,7.82,,7.31,,,
CC(=O)N1CCC(O)(CN2CC[C@@H](Cc3cn(-c4ccc(F)cc4C(=O)N(C)C(C)C)c4cncc(C)c34)C2)CC1 [Compound 177],9.96,7.46,,6.57,,,
CC(=O)N1CCC(CN2CC[C@@H](Cc3cn(-c4ccc(F)cc4C(=O)N(CCO)C(C)C)c4cncc(C)c34)C2)CC1 [Compound 326],10.42,7.80,,7.64,,,
Cc1cncc2c1c(CC1CN(C[C@H]3CC[C@H](C(=O)NC4CC4)CC3)C1)cn2-c1ccc(F)cc1C(=O)N(C)C(C)C [Compound 159],10.72,8.52,,8.00,,,
"Cc1cncc2c1c(C[C@@H]1CCN(C[C@H]3CCCCO3)C1)cn2-c1ccc(F)cc1C(=O)N(C)C(C)C (single isomer, unassigned) [Compound 147a]",10.09,8.00,,7.28,,,
Cc1cncc2c1c(C[C@@H]1CCN(CC3CCN(C(=O)N4CCOCC4)CC3)C1)cn2-c1ccc(F)cc1C(=O)N(C)C(C)C [Compound 174],10.32,8.15,,7.47,,,
"Cc1cncc2c1c(CC1CN(CC3CCOCC3)C1)cn2-c1ccc(F)cc1[S@@](=N)(=O)C(C)C (single isomer, unassigned) [Compound 167b]",9.93,7.00,,6.93,,,
Cc1cncc2c1c(C[C@@H]1CCN(CC3CCOCC3)C1)cn2-c1ccc(F)cc1C(=O)N1C[C@H](O)C[C@H]1C [Compound 359],9.78,7.10,,6.45,,,
"Cc1cncc2c1c(C[C@@H]1CCN(CC3CCOCC3)C1)cn2-c1ccc(F)cc1C(=O)N1CCC[C@@]1(C)CO (single isomer, unassigned) [Compound 362b]",10.17,7.92,,7.72,,,
Cc1cncc2c1c(CC1CN(CC3CCC(=O)NC3)C1)cn2-c1ccc(F)cc1C(=O)N(C)C(C)C (stereo not drawn) [Compound 120],10.27,6.27,,6.83,,,
Cc1cncc2c1c(C[C@@H]1CCN(CC3CCN(C)C(=O)C3)C1)cn2-c1ccc(F)cc1C(=O)N(C)C(C)C (mixture of isomers) [Compound 171],9.24,6.47,,< 6.00,,,
"Cc1cncc2c1c(C[C@@H]1CCN(C[C@@H]3CCNC(=O)CC3)C1)cn2-c1ccc(F)cc1C(=O)N(C)C(C)C (single isomer, unassigned) [Compound 169b]",9.71,7.06,,~6.66,,,
"CC(=O)N1CCC([C@@H](C)N2CC(Cc3cn(-c4ccc(F)cc4C(=O)N(C)C(C)C)c4cncc(C)c34)C2)CC1 (single isomer, unassigned) [Compound 150]",9.37,5.83,,< 6.00,,,
"CNC(=O)[C@H]1CC[C@H]([C@@H](C)N2CC(Cc3cn(-c4ccc(F)cc4C(=O)N(C)C(C)C)c4cncc(C)c34)C2)CC1 (single isomer, unassigned) [Compound 162]",9.30,6.37,,< 6.00,,,
Cc1cncc2c1c(C[C@H]1CCN(CC3CCN(C(=O)NC4CC4)CC3)C1)cn2-c1ccc(F)cc1C(=O)N(C)C(C)C [Compound 157],10.70,8.70,,8.22,,,
COCCN(C)C(=O)N1CCC(CN2CC[C@@H](Cc3cn(-c4ccc(F)cc4C(=O)N(C)C(C)C)c4cncc(C)c34)C2)CC1 [Compound 172],9.87,7.96,,7.74,,,
CNC(=O)N1CCC(CN2CC[C@H](Cc3cn(-c4ccc(F)cc4C(=O)N(C)C(C)C)c4cncc(C)c34)C2)CC1 [Compound 168],10.00,,,,,7.80,8.10
CN=S(=O)(c1cc(F)ccc1-n1cc(CC2CN(CC3CCOCC3)C2)c2c(C)cncc21)C(C)C (stereo not drawn) [Compound 79],9.77,7.04,5.03,,,,
CC(=O)N1CCC(CN2CC[C@@H](Cc3cn(-c4ccc(F)cc4C(=O)N4CCC(O)C4(C)C)c4cncc(C)c34)C2)CC1 (stereo partly drawn) [Compound 313],9.81,6.75,,6.26,,,
CC(=O)N1CCC(CN2CC[C@@H](Cc3cn(-c4ccc(F)cc4C(=O)N4CCC(O)C4C)c4cncc(C)c34)C2)CC1 (stereo in doubt) [Compound 325],9.47,5.98,,5.87,,,
"Cc1cncc2c1c(C[C@@H]1CCN(CC3CCOCC3)C1)cn2-c1ccc(F)cc1[S@@](=N)(=O)C(C)C (single isomer, unassigned) [Compound 78c]",9.42,6.70,,6.38,,,
"CN=[S@@](=O)(c1cc(F)ccc1-n1cc(C[C@H]2CCN(CC3CCN(C(C)=O)CC3)C2)c2c(C)cncc21)C(C)C (single isomer, unassigned) [Compound 128d]",9.98,7.05,,6.38,,,
"CN=S(=O)(c1cc(F)ccc1-n1cc(CC2CCN(CC3CCOCC3)C2)c2c(C)cncc21)C(C)C (single isomer, unassigned) [Compound 77a]",9.98,,,,,6.69,6.93
